According to ChEMBL document CHEMBL1126318, “Discovery of a potent substance P antagonist: recognition of the key molecular determinant” (J Med Chem, 1992):

Target: Substance-P receptor (Homo sapiens, UniProt P25103)
Assay: In vitro binding affinity for the Tachykinin receptor 1 in human IM-9 cell using [125I]BH-SP of the compound.
Type: cell-based

Substance-P receptor, sequence (P25103 whole entry): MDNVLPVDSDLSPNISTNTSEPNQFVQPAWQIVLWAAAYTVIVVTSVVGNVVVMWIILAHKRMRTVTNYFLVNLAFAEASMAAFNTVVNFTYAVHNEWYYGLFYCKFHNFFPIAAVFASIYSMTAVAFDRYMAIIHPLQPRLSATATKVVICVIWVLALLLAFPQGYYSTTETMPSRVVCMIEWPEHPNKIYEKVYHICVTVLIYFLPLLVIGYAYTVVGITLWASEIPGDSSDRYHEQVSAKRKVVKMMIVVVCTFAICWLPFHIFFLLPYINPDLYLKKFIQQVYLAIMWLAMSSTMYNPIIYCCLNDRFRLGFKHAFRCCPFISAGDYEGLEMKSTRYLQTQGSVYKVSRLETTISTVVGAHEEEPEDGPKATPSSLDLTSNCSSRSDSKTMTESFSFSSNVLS

## COc1ccccc1CN[C@H]1CCCN[C@H]1C(c1ccccc1)c1ccccc1 (racemic)
  Ki: 49 nM
